The record followed here is PMC9738107, “Targeting of the ELR+CXCL/CXCR1/2 Pathway Is a Relevant Strategy for the Treatment of Paediatric Medulloblastomas” (Cells, 2022).

Series [1] relates to HD-MB03 spheroids expressing DsRed on mouse cerebellar slices. Briefly: Ex vivo cerebellar organotypic model. Format: cell-based, human. To be noted: 5 µM C29 daily for five days, after fourteen days. The source says: (§1) To establish ex vivo cultures of cerebellar tissues, mouse cerebellums were surgically harvested and sectioned into 250 μm thick slices using a vibrating blade microtome (RRID:SCR_016495). To comply with the 3-R rule, we used supernumerary mice (aged 12 weeks) that were destined to be sacrificed. A spheroid formed from DsRed-expressing MB cells was then grafted onto each cerebellum slice. These organotypic co-culture models were placed on inserts and maintained as previously described. After daily exposure to C29 or DMSO for 5 consecutive days, tumour growth and invasion within the cerebellum slices were analysed over time using the JuLI™ Stage imaging system and the PHERAstar® FS multiplate reader (λex 580 nm/λem 620 nm–fluorescence signal acquisition with a 15 × 15 matrix scanning mode). […]
(§2) Figure 7 C29 is effective in ex vivo cerebellar organotypic model. […] (B) Spheroid growth was monitored by measuring DsRed fluorescence (PheraStar) over 14 days (C) Statistics were performed using Student t-test. * p < 0.05, n = 5. […] Daily (14 days) images, 30 in total, of spheroid growth in each well (JULISdays) were taken (D) Spheroid growth was monitored by measuring DsRed fluorescence (PheraStar) for 14 days (E) Scale bar = 250 µM. […]

Series [2] deals with ONS-76 spheroids expressing DsRed on mouse cerebellar slices. Briefly: Ex vivo cerebellar organotypic model. It is filed as cell-based, human. Conditions: 5 µM C29 daily for five days, after fourteen days.
Text: as §1, §2

Series [3] relates to radiation resistant Daoy cells (DR1, DR2). Description: Clonogenic assay. It is filed as cell-based, human. As to the method: (§3) Figure 8 C29 is efficient on radioresistant MB cell lines. (A) Cell death after 48 h of treatment with control (DMSO, CT) or C29 1, 2.5, or 5 µM on radiation-resistant cells (RR) and normal cells (N), n = 3. Statistics were performed using the one-way method ANOVA. * p < 0.05, ** p < 0.01, *** p < 0.001. For this figure, DR1 = D1, DR2 = D2, HR1 = H1, HR2 = H2, and C8D1A = C8. (B) Proliferation of DR1/DR2 (A) and HR1/HR2 (B) radio-resistant cells after 1 µM C29 treatment or control (DMSO), n = 3. (C) Clonogenic assay on DR1, DR2 (n = 3) and HR1, HR2 (n = 3) cells after treatment with control (DMSO) or C29 (1 µM or 2.5 µM). (D) Cell migration through the Boyden chamber of DR1 and DR2 cells specifically attracted by 200 ng/mL CXCL8. Cells were treated with control (DMSO) or C29 (1 and 2.5 µM). Results are expressed as percentage of control (n = 3). Scale = 1000 μm. Statistics were performed using Student t-test for 2 comparisons only or ANOVA test for multiple comparisons. * p < 0.05, ** p < 0.01, *** p < 0.001. […]
(§4) each month by using PlasmoTest Kit (#10L07‐MM, InvivoGen, Toulouse, France). Daoy and ONS‐76 belong to the Shh genetic subgroup, D341‐Med and HD‐MB03 to group 3. […]
(§5) 150 Daoy/DR1/DR2/ ONS ‐ 76 and 300 HD ‐ MB03/HR1/HR2 cells were seeded in trip‐ licate in 6‐well plates in the presence or absence of treatment (1 or 2∙5μM […] or DMSO as control). On day 9 (Daoy/ONS‐76) and day 11 (HD ‐MB03), cells were fixed in ice‐cold absolute ethanol (Sigma) for 20 min, washed with PBS and then stained with Giemsa 50% for 30 min. The number of clones was quantified using ImageJ software. We only considered clones containing more than 50 cells. […]
Violet. […]
(§6) 5000 cells were plated in 48 multi‐well plates coated with agarose 0∙8%. After two days, spheroids were mixed with 100μl of matrigel mix (200μl of matrigel (Corning Mat‐ rigel Matrix, Fontenay‐sous‐Bois, France), 100 μl collagen I (8 mg/ml, Corning), 80 μl HEPES 1M and 320μl respective medium) in 12 multi‐well plates. […]

A further series relates to HR2 cells. Briefly: Clonogenic assay. It is filed as cell-based, human. To be noted: HR2, 2.5 µM. As to the method: as §3, §4, §5
Violet. […]
as §6

A further series in a line: Lipophilicity (log D). Format: physicochemical. To be noted: source not stated.

One may read the logD as lipophilicity at a set pH, counting ionised and neutral species. Low readings indicate a more hydrophilic compound, high ones a more lipophilic compound. In the case of `O=C(Nc1cccc(Cl)c1)Nc1nc2ccc([N+](=O)[O-])cc2s1` [C29, 1-(3-chlorophenyl)-3-(6-nitrobenzo[d]thiazol-2-yl) urea], the “Reduction of tumour expansion” value in series [1] was found to be 34.4 ± 8.8%; in series [2], 28.9 ± 4.5%. Moreover, the Clone formation result in series [3] (DR1, DR2, 1 µM) is “effective”; in series [3] (DR1, DR2, 2.5 µM) it was “completely prevented clone formation”; in the series with HR2 cells it was “significantly reduced clone formation”. The logD in “Lipophilicity (log D)” is approximately 3.
